From US9234038B2, “Compositions and method for the diagnosis, prevention and treatment of alzheimer's disease” (Seoul National University Industry Foundation, priority 2007, dated 2016) come the findings set out here.

In data set [1] the test system is primary-cultured neuronal cells. The experiment in a line: Cell survival of Aβ-exposed primary neuronal culture treated with FcγRIIb ED. Type of data set: cell-based, rat. The conditions noted are these: 5 μM Aβ 48 hrs, 100 μg FcγRIIb ED, compared to BSA. As to the method:
(§1) An FcγRIIb extracellular domain (ED) was purified as described in Sondermann et al., EMBO J, 18:1095-1103, 1999. Neuronal B103 cells or primary-cultured neuronal cells were exposed to 5 μM of Aβ for 48 hrs. Then, cells were treated or not treated with 100 μg of the purified FcγRIIb ED, or treated or not treated with 100 μg of bovine serum albumin (BSA). B103 cells were subjected to Western blotting, which was performed with anti-FcγRIIb antibody as described in Example 2-2. The primary neuronal culture was evaluated for cell survival as described in Example 3.

The next data set has as its target T1, Aβ1-42 (Homo sapiens, UniProt P05067).
T1 construct: subjected to Western blotting to assess the association between FcγRII and Aβ1-42; purchased Sigma
The experiment in a line: In vitro binding assay (immunoprecipitation, Western blot). The conditions noted are these: 5 μM Aβ, 20 μg FcγRIIb-ED, 37° C. 3 hrs. As to the method: 5 μM of Aβ was mixed with 20 μg of FcγRIIb-ED or 20 μg of BSA in vitro, and was incubated at 37° C. for 3 hrs. The reaction mixture was incubated with anti-FcγRIIb polyclonal antibody or anti-GST antibody for 2 hrs, and then with Protein G for 3 hrs (binding solution: 50 mM Tris-HCl, pH 7.4, 1 mM DTT, 0.5 mM EDTA, 0.01% Triton X-100, 0.5 mg/ml bovine serum albumin, 10% (v/v) glycerol, protease inhibitors cocktail, several concentrations of NP-40). The beads were washed three times and subjected to Western blotting to assess the association between FcγRII and Aβ1-42. Western blotting was carried out with K9.361 antibody and anti-Aβ antibody (primary antibody: 71-5800 (Zymed, USA); secondary antibody: goat anti-rabbit IgG conjugated to horseradish peroxidase (Santa Cruz Biotechnology, USA).
Background: In western blotting, separated proteins are transferred to a membrane and probed.

The next data set has as its system FcγRIIb. The experiment in a line: Western blot of FcγRIIb expression in Aβ-exposed B103 cells treated with FcγRIIb ED. Type of data set: cell-based, rat. The conditions noted are these: 5 μM Aβ 48 hrs; 100 μg FcγRIIb ED. The procedure:
as §1

The test system of data set [2] is BALB/c mice. The experiment in a line: Memory test (Y-maze, passive avoidance) after i.c.v. Aβ. Type of data set: in vivo, mouse. The conditions noted are these: i.c.v. injection of Aβ 410 pmole plus peptide, tests after one day. As to the method:
Tg2576 mice were not used in this test because it takes a lot of time to breed the animals, and they are expensive. Instead, normal mice were used in this memory test because the same AD symptoms as in Tg2576 mice were observed when Aβ was injected into the brains of normal mice. Normal BALB/c mice were injected intracerebroventricularly (i.c.v.) with Aβ (1.855 μg/5 μl, 410 pmole) alone or in combination with a specific peptide. After one day, a Y-maze test and a passive avoidance test were performed. Memory was assessed as described in Yan et al., Br. J. Pharmacol, 133:89-96, 2001.

The next data set addresses T2, FcγRIIb-CD40 chimera (UniProt P25942+Q63203).
T2 construct: an extracellular domain of FcγRIIb was genetically fused to CD40, consisting of a transmembrane domain and a cytoplasmic domain; human CD40 transmembrane and cytoplasmic domains (fusion partner); expressed in transfected cells; host or cells: NIH3T3
T2 sequence (Q63203+P25942 with tags, fused parts or gaps): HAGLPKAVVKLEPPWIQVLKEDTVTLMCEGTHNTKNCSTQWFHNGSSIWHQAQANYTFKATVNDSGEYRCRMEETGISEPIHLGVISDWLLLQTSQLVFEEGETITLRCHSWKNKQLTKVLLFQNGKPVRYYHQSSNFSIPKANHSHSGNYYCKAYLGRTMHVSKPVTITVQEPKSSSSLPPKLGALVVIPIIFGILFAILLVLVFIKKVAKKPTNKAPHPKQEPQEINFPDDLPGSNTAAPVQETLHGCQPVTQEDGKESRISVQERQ
The experiment in a line: FcγRIIb-CD40 chimera NF-κB luciferase assay of Aβ binding. The conditions noted are these: Aβ 5 μM. Type of data set: cell-based, rat. From the text: In order to investigate whether FcγRIIb binds to Aβ in a specific manner, an extracellular domain of FcγRIIb was genetically fused to CD40, consisting of a transmembrane domain and a cytoplasmic domain. The resulting FcγRIIb-CD40 fusion gene was expressed in NIH3T3 cells to increase NF-κ B activity, a signal transducer of CD40, when the fusion protein binds to Aβ. The chimeric gene was constructed as follows. A rat FcγRIIb extracellular region and human CD40 transmembrane and cytoplasmic domains were amplified by performing PCR with FcγRIIb-ED-5′-NheI primer (5′-[…]-3′: SEQ ID No. 15), FcγRIIb-ED-3′-HindIII primer (5′-[…]3′: SEQ ID No. 16), CD40-TM+cyto-5′ primer (5′-[…]-3′: SEQ ID No. 17), and CD40-TM+cyto-3′ primer (5′-[…]-3′: SEQ ID No. 18). PCR products were inserted into a pEGFP-N1 vector according to the same method as in Example 3. Cells were transfected with the chimeric gene, CD40, TNFRI, pcDNA3 (mock) along with an NF-kB-luciferase gene, and were exposed to 5 μM of Aβ or 20 ng/ml of TNF. NF-κ B activity was assessed, as described in Woo et al., FEBS Lett. 578, 239-244, 2004.
Based on the results of Example 10, a sequence spanning from the first to ninth residues from the N-terminus of Aβ, and a 95 to 101 sequence and a 107 to 114 sequence of mouse FcγRIIb, which are Aβ docking sites, were synthesized. Also, peptides, in which a residue involved in Aβ-cγRIIb binding in the above sequences was replaced with alanine, were synthesized. The peptides (wild type and mutant) have the sequences represented by SEQ ID Nos. 19 to 28 (panel a, FIG. 10). The synthesized peptides were individually allowed to react with a mixture of FcγRIIb-CD40 and Aβ (5 μM) or PBS. Then, luciferase activity was measured.

Data set [3] concerns BALB/c mice. The experiment in a line: Immunostaining of intraneuronal Aβ accumulation in mouse brain. Type of data set: in vivo. The conditions noted are these: mice treated i.c.v. with Aβ plus peptide. The procedure: Brain specimens were prepared from the mice of Example 13 according to the same method as in Example 6. Sections were immunostained with primary antibodies, anti-Aβ antibody (Biosource, USA) plus an antibody to a marker of neurons, anti-neuron specific enolase (NSE) antibody (Axxora, Swiss) or anti-neuron specific nuclear protein (NeuN) antibody (Chemicon, USA), and with secondary antibodies, anti-mouse-FITC antibody (goat anti-mouse IgG conjugated to FITC (Santa Cruz Biotechnology, USA), anti-mouse-TRITC antibody (goat anti-mouse IgG conjugated to TRITC (Santa Cruz Biotechnology, USA), and anti-rabbit-goat-anti-mouse IgG conjugated to horseradish peroxidase (Santa Cruz Biotechnology, USA)).

Data set [4] concerns B103 cells. In words: Immunostaining of intracellular Aβ accumulation in siRNA-transfected B103 cells. The conditions noted are these: 100 nM Aβ, 12 hrs. The class given is cell-based, rat. As to the method: psiFcγRIIb #1 cells or psiRAGE #1 cells, prepared in Example 4, were exposed to 100 nM of Aβ or PBS for 12 hrs, and immunostained with anti-Aβ antibody (4G8; Signet, USA) according to the same method as in Example 2-3.

In data set [5] the test system is B103 cells. In words: Viability of siRNA-transfected B103 cells exposed to Aβ. The class given is cell-based, rat. The conditions noted are these: 5 μM Aβ, 48 hrs. An excerpt:
Small interfering RNAs (siRNAs) inhibiting the expression of FcγIIb and receptors for advanced glycation end-product (RAGE), which is known as a cell surface receptor of Aβ, were constructed, and their effects on cell death were compared to each other. A siRNA duplex was formed by hybridizing sense and antisense complementary RNA oligonucleotides, listed in Table 1, below, and was inserted into pSuper-neo (Oligoengine, USA). The siRNA expression vectors thus constructed were individually transfected into B103 cells using lipofectamine (Invitrogen, USA) according to the manufacturer's protocol. The resulting transfected cells were designated “pSuper-neo”, “psiFcγRIIb#1”, “psiFcγRIIb#2”, “psiRAGE#1”, and “psiRAGE#2”. Then, transfected cells were subjected to Western blot analysis. […] Then, the transformed B103 cells were exposed to 5 μM of Aβ or PBS for 48 hrs, and their viability was evaluated. Cell survival was assessed through trypan blue exclusion, Hoechst staining (Sigma, USA), and Annexin V labeling (Promega, USA). The survival of effector cells and cells introduced with pEGFP (Clontech, USA) was determined by observing the morphology of GFP-positive cells under a fluorescence microscope (Leica DMRBE, Germany). Cells were determined to be dead when the cell morphology changed to a spherical shape and the cell membrane was disrupted or destroyed.

Entries after “also recorded” stand apart in the source; their conditions may differ.

T1 sequence (P05067 672-713): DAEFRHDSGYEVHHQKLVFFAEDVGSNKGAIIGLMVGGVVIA

For “FcγRIIb ED: purified FcγRIIb extracellular domain (SEQ ID No. 33), purified as described in Sondermann et al. 1999”, the “Aβ signaling / relative cell viability” value in data set [1] is “completely inhibit”; in data set [1] (listed as FcγRIIb extracellular domain), “increased to that of cells not exposed to Aβ; also recorded: increase the relative viability of neuronal cells exposed to Aβ to the same level as cells not exposed to Aβ”. For the same molecule, the “binding of Aβ to FcγRIIb-ED” value with Aβ1-42 is “directly bind”. The “Aβ-increased expression of FcγRIIb” value in the data set with FcγRIIb is reported as “suppressed”.
As to “9: synthesized peptide among SEQ ID Nos. 19 to 28; corresponds to a binding region in Aβ or FcγRIIb; probably SEQ ID No. 27 (RCHSWRNK; Synthetic peptide #9 for interaction inhibitor) [compound 9]”, the Aβ-induced memory decline result with BALB/c mice [2] is reported as “strongly reduce; also recorded: restore”. Also, the “NF-κB activation induced through binding of Aβ to FcγRIIb-CD40 (luciferase activity)” value (shortened to “NF-κB activation induced through binding”) with FcγRIIb-CD40 chimera is recorded as “strongly inhibited; also recorded: effectively inhibited”.
As to “peptide #7: mutant peptide having an alanine substitution for a residue responsible for Aβ-FcγRIIb binding; among SEQ ID Nos. 19 to 28 (DAEARHASG; Synthetic peptide #7 for interaction inhibitor)”, the “intraneuronal Aβ accumulation in brain” value with BALB/c mice [3] was “strong intraneuronal Aβ staining”. Besides, in the data set on BALB/c mice [2], the Aβ-induced memory decline entry is on record as “failed to reverse memory decline”. Moreover, the “NF-κB activation induced through binding” value with FcγRIIb-CD40 chimera is reported as “sharp decrease in inhibitory effects”.
As for “peptide #1: synthesized peptide among SEQ ID Nos. 19 to 28; corresponds to a binding region in Aβ or FcγRIIb; probably SEQ ID No. 19 (DAEFRHDSG; Synthetic peptide #1 for interaction inhibitor)”, in the data set with BALB/c mice [3] (listed as #1), the “intraneuronal Aβ accumulation in brain” value was “disappeared; also recorded: completely inhibited”. Further, the Aβ-induced memory decline entry in the data set with BALB/c mice [2] (listed as #1) is listed as “strongly reduce; also recorded: restore”. For the same molecule, the “NF-κB activation induced through binding” value with FcγRIIb-CD40 chimera (listed as #1) is on record as “strongly inhibited; also recorded: effectively inhibited”.

B1: siRNA against RAGE: siRNA against RAGE, oligomers SEQ ID Nos. 13 and 14, inserted into pSuper-neo (nucleic acid)
sense: GATCCCCGCTCCGGATGAAGAATCAGTTCAAGAGACTGATTCTTCATCCGGAGCTTTTTGGAAA
antisense: AGCTTTTCCAAAAAGCTCCGGATGAAGAATCAGTCTCTTGAACTGATTCTTCATCCGGAGCGGAGTCGGG
modifications: expressed or natural sequence; the letters are possibly those of the target site
As to B1, the “intracellular Aβ accumulation” value with B103 cells [4] is given as “maintained”. In the data set with B103 cells [5], the “Aβ-induced cell death / survival” value is “low survival”.
